Laboratory results from patent publication US8143263B2, “Therapeutic agents” (Astrazeneca AB, priority 2008, dated 2012).

target: T1, recombinant human pancreatic GLK (Homo sapiens, UniProt P35557); assay: biochemical
T1 sequence (P35557 1-465): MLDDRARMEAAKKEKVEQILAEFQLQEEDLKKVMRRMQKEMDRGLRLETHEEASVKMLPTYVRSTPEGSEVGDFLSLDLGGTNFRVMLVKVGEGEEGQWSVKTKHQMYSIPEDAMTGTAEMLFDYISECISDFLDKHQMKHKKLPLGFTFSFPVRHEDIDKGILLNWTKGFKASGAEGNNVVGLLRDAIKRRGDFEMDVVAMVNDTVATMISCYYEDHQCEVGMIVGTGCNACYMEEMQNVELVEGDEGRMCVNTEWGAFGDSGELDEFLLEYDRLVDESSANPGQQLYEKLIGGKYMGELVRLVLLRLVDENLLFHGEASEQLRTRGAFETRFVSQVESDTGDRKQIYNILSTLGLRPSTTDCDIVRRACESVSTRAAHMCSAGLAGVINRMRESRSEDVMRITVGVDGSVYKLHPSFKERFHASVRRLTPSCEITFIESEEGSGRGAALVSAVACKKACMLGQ

SMILES	EC50 [nM]
COC[C@@H](C)OC[C@H](Oc1ncnc2c1cnn2-c1ccccc1Cl)C(=O)Nc1ccc(C)cn1 [Example 153, (2S)-2-(1-(2-chlorophenyl)-1H-pyrazolo[3,4-d]pyrimidin-4-yloxy)-3-((R)-1-methoxypropan-2-yloxy)-N-(5-methylpyridin-2-yl)propanamide]	280
N#Cc1ccc(NC(=O)[C@H](CN2CC(O)C2)Oc2ncnc3c2cnn3-c2c(Cl)cccc2Cl)nc1 [Example 234, (2S)—N-(5-cyano-2-pyridyl)-2-[1-(2,6-dichlorophenyl)pyrazolo[3,4-d]pyrimidin-4-yl]oxy-3-(3-hydroxyazetidin-1-yl)propanamide]	210
Cc1cnc(NC(=O)[C@H](COC(C)C)Oc2ncnc3c2cnn3-c2nccnc2C)cn1 [Example 106, (2S)-3-Isopropoxy-N-(5-methylpyrazin-2-yl)-2-(1-(3-methylpyrazin-2-yl)-1H-pyrazolo[3,4-d]pyrimidin-4-yloxy)propanamide]	6900
Cc1ccc(NC(=O)[C@H](CO[C@H](C)CO)Oc2ncnc3c2cnn3-c2ncccc2Cl)nc1 [Example 232, (2S)-2-[1-(3-chloro-2-pyridyl)pyrazolo[3,4-d]pyrimidin-4-yl]oxy-3-[(1R)-2-hydroxy-1-methyl-ethoxy]-N-(5-methyl-2-pyridyl)propanamide]	540
Cc1ccc(C#N)cc1-n1ncc2c(O[C@@H](COCCO)C(=O)Nc3ccc(C#N)cn3)ncnc21 [Example 183, (2S)-2-(1-(5-cyano-2-methylphenyl)-1H-pyrazolo[3,4-d]pyrimidin-4-yloxy)-N-(5-cyanopyridin-2-yl)-3-(2-hydroxyethoxy)propanamide]	7700
Cc1ccc(NC(=O)[C@H](CCS(C)(=O)=O)Oc2ncnc3c2cnn3-c2ccccc2Cl)nc1 [Example 161, -(2S)-2-(1-(2-chlorophenyl)-1H-pyrazolo[3,4-d]pyrimidin-4-yloxy)-N-(5-methylpyridin-2-yl)-4-(methylsulfonyl)butanamide]	610
COc1ccccc1-n1ncc2c(OC(C)C(=O)Nc3ccc(C)cn3)ncnc21 (centres unmarked) [Example 44, 2-{[1-(2-Methoxyphenyl)-1H-pyrazolo[3,4-d]pyrimidin-4-yl]oxy}-N-(5-methylpyridin-2-yl)propanamide]	3400
CC(C)OCC(Oc1ncnc2c1cnn2-c1ccccc1Cl)C(=O)Nc1ccon1 (centres unmarked) [Example 119, 2-[1-(2-chlorophenyl)pyrazolo[4,5-e]pyrimidin-4-yl]oxy-3-isopropoxy-N-isoxazol-3-yl-propanamide]	1200
CC(C)OC[C@H](Oc1ncnc2c1cnn2-c1ncccc1Cl)C(=O)Nc1ccc(S(C)(=O)=O)cn1 [Example 177, (2S)-2-(1-(3-chloropyridin-2-yl)-1H-pyrazolo[3,4-d]pyrimidin-4-yloxy)-3-isopropoxy-N-(5-(methylsulfonyl)pyridin-2-yl)propanamide]	1500
O=C(Nc1ccc(Cl)cn1)[C@H](COCCO)Oc1ncnc2c1cnn2-c1ccccc1Cl [Example 171, (2S)-2-[1-(2-chlorophenyl)pyrazolo[4,5-e]pyrimidin-4-yl]oxy-N-(5-chloropyridin-2-yl)-3-(2-hydroxyethoxy)propanamide]	330
CCOC[C@H](Oc1ncnc2c1cnn2-c1ncccc1Cl)C(=O)Nc1cnc(C)cn1 [Example 104, (2S)-2-[1-(3-Chloropyridin-2-yl)pyrazolo[4,5-e]pyrimidin-4-yl]oxy-3-ethoxy-N-(5-methylpyrazin-2-yl)propanamide]	1200
CC[C@@H](Oc1ncnc2c1cnn2-c1ccccc1OC)C(=O)Nc1ccc(C)cn1 [Example 43, (2R)-2-{[1-(2-Methoxyphenyl)-1H-pyrazolo[3,4-d]pyrimidin-4-yl]oxy}-N-(5-methylpyridin-2-yl)butanamide]	4200
CCOC[C@H](Oc1ncnc2c1cnn2-c1ncccc1Cl)C(=O)Nc1ccccn1 [Example 127e, (2S)-2-[1-(3-chloro-2-pyridyl)pyrazolo[4,5-e]pyrimidin-4-yl]oxy-3-ethoxy-N-(2-pyridyl)propanamide]	550
O=C(Nc1ccccn1)[C@H](CN1CC(CO)C1)Oc1ncnc2c1cnn2-c1ccccc1Cl [Example 228, (2S)-2-[1-(2-chlorophenyl)pyrazolo[3,4-d]pyrimidin-4-yl]oxy-3-[3-(hydroxymethyl)azetidin-1-yl]-N-(2-pyridyl)propanamide]	460
COCC[C@H](Oc1ncnc2c1cnn2-c1ccccc1Cl)C(=O)Nc1ccc(C)cn1 [Example 21, (S)-2-{[1-(2-chlorophenyl)-1H-pyrazolo[3,4-d]pyrimidin-4-yl]oxy}-4-methoxy-N-(5-methylpyridin-2-yl)butanamide]	32
COCCC(Oc1ncnc2c1cnn2-c1ccccc1OC)C(=O)Nc1nc(C)cs1 (centres unmarked) [Example 35, 4-Methoxy-2-{[1-(2-methoxyphenyl)-1H-pyrazolo[3,4-d]pyrimidin-4-yl]oxy}-N-(4-methyl-1,3-thiazol-2-yl)butanamide]	2100
CC(C)OC[C@H](Oc1ncnc2c1cnn2-c1ncccc1Cl)C(=O)Nc1ccc(Cl)cn1 [Example 127i, (2S)—N-(5-chloro-2-pyridyl)-2-[1-(3-chloro-2-pyridyl)pyrazolo[4,5-e]pyrimidin-4-yl]oxy-3-isopropoxy-propanamide]	360
N#Cc1cccc(Cl)c1-n1ncc2c(O[C@@H](COCCO)C(=O)Nc3ccc(F)cn3)ncnc21 [Example 237, (2S)-2-[1-(2-chloro-6-cyano-phenyl)pyrazolo[3,4-d]pyrimidin-4-yl]oxy-N-(5-fluoro-2-pyridyl)-3-(2-hydroxyethoxy)propanamide]	470
Cc1nsc(NC(=O)[C@H](COC(C)C)Oc2ncnc3c2cnn3-c2ccccc2Cl)n1 [Example 100, (2S)-2-[1-(2-Chlorophenyl)pyrazolo[4,5-e]pyrimidin-4-yl]oxy-N-(3-methyl-1,2,4-thiadiazol-5-yl)-3-propan-2-yloxypropanamide]	1000
O=C(Nc1ccc(Cl)cn1)[C@H](CN1CC(O)C1)Oc1ncnc2c1cnn2-c1ncccc1Cl [Example 165, (2S)—N-(5-chloropyridin-2-yl)-2-[1-(3-chloropyridin-2-yl)pyrazolo[4,5-e]pyrimidin-4-yl]oxy-3-(3-hydroxyazetidin-1-yl)propanamide]	370
COCC[C@@H](Oc1ncnc2c1cnn2-c1cccc(C)c1)C(=O)Nc1ccc(C)cn1 [Example 32, (R)-4-Methoxy-2-{[1-(3-methylphenyl)-1H-pyrazolo[3,4-d]pyrimidin-4-yl]oxy}-N-(5-methylpyridin-2-yl)butanamide]	≥ 100000
CC(C)OCC(Oc1ncnc2c1cnn2-c1ccccc1Cl)C(=O)Nc1cc(C#N)ccn1 (centres unmarked) [2-[1-(2-chlorophenyl)pyrazolo[4,5-e]pyrimidin-4-yl]oxy-N-(4-cyano-2-pyridyl)-3-isopropoxy-propanamide]	> 100000
Cc1cnc(NC(=O)[C@H](CCO)Oc2ncnc3c2cnn3-c2ncccc2Cl)cn1 [Example 143a, (2S)-2-[1-(3-chloro-2-pyridyl)pyrazolo[4,5-e]pyrimidin-4-yl]oxy-4-hydroxy-N-(5-methylpyrazin-2-yl)butanamide]	2600
